Marks after values point to notes of the source that are not given here.
Assays:
SD Rat = assay: Oral glucose tolerance (OGTT) in rats; assay type: in vivo; settings: male SD rats, single gavage dose, Canagliflozin 3 mg/kg, test compound 10 mg/kg
Procedure: The animals will be acclimatized in the animal room for 1 week after arrival at the facility.
The animals are fasted for 16 hours in the metabolic cage and given the drug or solvent (5 mL/kg) according to the table above, followed immediately by 50% glucose solution (2 g/kg, 4 mL/kg).
After 1 hour of glucose administration, the animals resumed feeding, and blood samples were collected at 0 min, 20 min, 40 min, 60 min, 90 min and 120 min for blood glucose measurement; urine at 0 to 24 hours was used for urinary glucose (mg/200 g) and urine volume test, respectively.
All values were expressed as mean values. Statistical analysis was performed using Graphpad Prism 6 single factor analysis of variance Tukey's multiple comparison test. The p-value less than 0.05 was considered statistically significant.

Human-SGLT1 = target: T1, Human-SGLT1 (Homo sapiens, UniProt P13866); assay: SGLT1 glucose transport assay ([14C]-labeled glucose uptake); assay type: cell-based; settings: cells stably expressing Human-SGLT1, 37° C., 2 hours
T1 sequence (P13866 1-664): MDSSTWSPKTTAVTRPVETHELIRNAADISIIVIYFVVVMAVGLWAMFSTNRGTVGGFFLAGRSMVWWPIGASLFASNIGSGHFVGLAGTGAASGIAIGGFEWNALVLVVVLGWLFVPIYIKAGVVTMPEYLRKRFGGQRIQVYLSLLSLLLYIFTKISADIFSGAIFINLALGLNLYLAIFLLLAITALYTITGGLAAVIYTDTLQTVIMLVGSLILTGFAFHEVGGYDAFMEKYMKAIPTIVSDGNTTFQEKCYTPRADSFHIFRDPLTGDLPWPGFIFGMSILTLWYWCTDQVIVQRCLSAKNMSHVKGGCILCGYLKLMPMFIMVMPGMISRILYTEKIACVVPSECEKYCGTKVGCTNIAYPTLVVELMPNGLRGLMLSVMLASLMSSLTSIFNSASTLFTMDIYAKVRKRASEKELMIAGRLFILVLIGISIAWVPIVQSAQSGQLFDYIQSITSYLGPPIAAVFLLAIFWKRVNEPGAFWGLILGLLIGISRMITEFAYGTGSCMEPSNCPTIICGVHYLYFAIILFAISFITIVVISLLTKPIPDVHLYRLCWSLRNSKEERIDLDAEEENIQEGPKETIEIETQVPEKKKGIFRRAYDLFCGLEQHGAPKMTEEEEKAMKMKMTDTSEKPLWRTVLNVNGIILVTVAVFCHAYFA
Procedure: To test the effect of compounds on the glucose transport activity of SGLT1 transporters by measuring the amount of [^14C]-labeled glucose entering highly expressed Human-SGLT1 cells.
The cells stably expressing Human-SGLT1 used for the experiments were constructed by WuXi AppTec Shanghai. The SGLT1 cells were plated in Cytostar-T (PerkinElmer) 96-well cell culture plates and cultured overnight at 5% CO2, 37° C.
(§1) Experimental buffer: 10 mM 4-hydroxyethylpiperazine ethanesulfonic acid (HEPES), 1.2 mM magnesium chloride (MgCl2), 4.7 mM potassium chloride (KCl), 2.2 mM calcium chloride (CaCl2) and 120 mM sodium chloride (NaCl).
The compounds were diluted with 100% dimethyl sulfoxide (DMSO) at a starting concentration of 1 mM, 8 points of 5-fold serial gradient dilution was made.
3 μM [^14C]-labeled methyl α-D-glucopyranoside (Methyl a-D-glucopyranosid) was prepared with experimental buffer.
Cells were treated with 49 μL of experimental buffer, 1 μL of gradient-diluted compound and 50 μL of 3 μM [^14C]-isotope-labeled glucose solution at 37° C. for 2 hours.
Readings were taken with an isotope detector (Micro beta Reader).
The data were calculated by GraphPad Prism 5.0 software using the formula: log(inhibitor) vs. response—Variable slope to obtain the IC50 values of the tested compounds, and the experimental results are shown in Table 5.

Human-SGLT2 = target: T2, Human-SGLT2 (Homo sapiens, UniProt P31639); assay: SGLT2 glucose transport assay ([14C]-labeled glucose uptake); assay type: cell-based; settings: cells stably expressing Human-SGLT2, 37° C., 2 hours
T2 sequence (P31639 1-672): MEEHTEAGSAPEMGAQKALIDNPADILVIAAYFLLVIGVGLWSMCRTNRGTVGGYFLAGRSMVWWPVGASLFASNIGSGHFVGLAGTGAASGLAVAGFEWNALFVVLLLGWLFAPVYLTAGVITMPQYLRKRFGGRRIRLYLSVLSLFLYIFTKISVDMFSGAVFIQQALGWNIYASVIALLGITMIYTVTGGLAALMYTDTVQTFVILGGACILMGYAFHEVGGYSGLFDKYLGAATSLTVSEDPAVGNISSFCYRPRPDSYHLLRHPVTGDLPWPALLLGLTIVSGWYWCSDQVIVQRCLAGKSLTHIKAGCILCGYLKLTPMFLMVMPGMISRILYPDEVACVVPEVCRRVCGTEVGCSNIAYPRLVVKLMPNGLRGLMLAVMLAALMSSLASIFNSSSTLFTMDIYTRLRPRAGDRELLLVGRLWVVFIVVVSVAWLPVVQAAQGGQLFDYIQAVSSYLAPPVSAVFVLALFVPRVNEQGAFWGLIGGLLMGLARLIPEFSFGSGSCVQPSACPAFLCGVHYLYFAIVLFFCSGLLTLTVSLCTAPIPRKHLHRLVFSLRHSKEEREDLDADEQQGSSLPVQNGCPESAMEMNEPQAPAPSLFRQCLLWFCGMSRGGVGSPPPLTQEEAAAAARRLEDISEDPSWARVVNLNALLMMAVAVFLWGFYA
Procedure: To test the effect of compounds on the glucose transport activity of SGLT2 transporters by measuring the amount of [^14C]-labeled glucose entering highly expressed Human-SGLT2 cells.
The cells stably expressing Human-SGLT2 used for the experiments were constructed by WuXi AppTec Shanghai. SGLT2 cells were plated in 96-well cell culture plates (Greiner) and cultured overnight at 5% CO2, 37° C.
as §1
Termination buffer: 10 mM 4-hydroxyethylpiperazine ethanesulfonic acid (HEPES), 1.2 mM magnesium chloride (MgCl2), 4.7 mM potassium chloride (KCl), 2.2 mM calcium chloride (CaCl2), 120 mM sodium chloride (NaCl) and 1 μM LX4211.
The compounds were diluted with 100% dimethyl sulfoxide (DMSO) at a starting concentration of 10 μM, 8 points of 5-fold serial gradient dilution was made.
6 μM [^14C]-labeled methyl α-D-glucopyranoside was prepared with experimental buffer.
Cells were treated with 49 μL of experimental buffer, 1 μL of gradient-diluted compound, and 50 μL of 6 μM [^14C]-isotope-labeled glucose solution at 37° C. for 2 hours.
The liquid in the wells was aspirated and the cells were washed 3 times with termination buffer.
The cells were lysed with 50 μL of 10% sodium hydroxide solution, and the cell lysate was aspirated into a scintillation tube, and 2 mL of scintillation solution was added.
Readings were taken with an isotope detector (Tricarb).
The data were calculated by GraphPad Prism 5.0 software using the formula: log (inhibitor) vs. response—Variable slope to obtain the IC50 values of the tested compounds, and the experimental results are shown in Table 5.

[1] = target: recombinant human dipeptidyl peptidase 4 (rhDPP4) (Homo sapiens, UniProt P27487); assay: rhDPP4 inhibitor screening experiment; assay type: biochemical; settings: Gly-Pro-aminofluorescein substrate, 1 hour at room temperature
Text: To evaluate the inhibitory activity of compounds against recombinant human dipeptidyl peptidase 4 (rhDPP4) by measuring the half-inhibitory concentration (IC50) values of the compounds. In the experiment, rhDPP4 was used to catalyze the generation of […] from substrate, the substrate was a luminescent precursor […], and the substrate and luciferase were reacted to generate a light signal, the intensity of the light signal was proportional to the enzyme activity.
• 1) The gradient diluted compounds (4-fold fold-dilution, 10 assay concentrations) were transferred 250 nL into a 384-well plate (PerkingElmer-6007299) using a non-contact nano-acoustic pipetting system (ECHO), and dimethyl sulfoxide (DMSO) concentration was 0.5% in the final reaction system. Blank control wells (containing DMSO, substrate and 10 mM Tris-HCl) and positive control wells (containing DMSO, substrate and rhDPP4) were set up. • 2) The pre-dispensed frozen buffer containing luciferase was removed and restored to room temperature, and then the substrate was added to configure a working solution with a substrate concentration of 20 μM. RhDPP4 was prepared as a working solution of 0.2 ng/mL using 10 mM Tris-HCl (pH 8.0) aqueous solution. • 3) 25 μL of working solution containing 20 μM substrate and 25 μL of working solution containing 0.2 ng/mL rhDPP4 were added to a 384-well plate with the addition of the compound, then the mixture was centrifuged for 30 s at 1000 rpm, the plate was sealed with aluminum foil sealing film and incubated for 1 hour at room temperature. • 4) The intensity of the light signal was detected by EnVision, a multifunctional microplate reader. The raw data were used to calculate the inhibition of rhDPP4 activity by the compound. % of inhibition activity=100−(compound well signal value−blank control well signal value)/(positive control well signal value−blank control well signal value)*100. • The percent of inhibition was imported into GraphPad Prism software for data processing to derive the corresponding dose-effect curves and to derive the IC50 values of the tested compounds.

recombinant human dipeptidyl peptidase 4 (rhDPP4), sequence (P27487 whole entry): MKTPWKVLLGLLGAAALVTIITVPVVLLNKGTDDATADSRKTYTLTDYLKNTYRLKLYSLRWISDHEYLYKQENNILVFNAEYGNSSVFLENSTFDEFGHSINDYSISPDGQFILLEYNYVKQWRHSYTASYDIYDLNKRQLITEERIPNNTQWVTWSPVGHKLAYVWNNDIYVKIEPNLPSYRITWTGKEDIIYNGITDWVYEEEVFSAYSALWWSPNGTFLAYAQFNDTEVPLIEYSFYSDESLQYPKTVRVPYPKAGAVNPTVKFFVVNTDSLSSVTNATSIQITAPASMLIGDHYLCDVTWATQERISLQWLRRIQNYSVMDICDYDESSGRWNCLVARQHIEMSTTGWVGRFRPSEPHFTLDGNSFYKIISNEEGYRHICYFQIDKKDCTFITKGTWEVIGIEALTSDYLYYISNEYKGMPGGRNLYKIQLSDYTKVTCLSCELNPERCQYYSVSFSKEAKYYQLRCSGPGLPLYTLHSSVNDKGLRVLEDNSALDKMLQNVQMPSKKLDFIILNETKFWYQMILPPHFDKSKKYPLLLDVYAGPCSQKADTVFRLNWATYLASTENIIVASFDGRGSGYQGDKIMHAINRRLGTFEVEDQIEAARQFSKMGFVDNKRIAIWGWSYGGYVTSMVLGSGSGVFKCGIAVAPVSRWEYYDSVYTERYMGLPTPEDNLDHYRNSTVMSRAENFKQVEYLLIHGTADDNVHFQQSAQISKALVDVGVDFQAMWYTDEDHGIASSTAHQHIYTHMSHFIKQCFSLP

IC50 (Human-SGLT1) [nM]	IC50 (Human-SGLT2) [nM]	IC50 [1] [nM]	Compound	OGTT blood glucose levels AUC0-2hr (SD Rat; glucose 2 g/kg) [mmol/L/min]	Urinary glucose level (SD Rat; urine 0 to 24 hours)	Urine volume (SD Rat; urine 0 to 24 hours)
33.3	5.96	166	CS[C@H]1O[C@@H](c2cc(C)c(Cl)c(Cc3ccc(OC4CCN([C@H]5CO[C@H](c6cc(F)ccc6F)[C@@H](N)C5)C4)cc3)c2)[C@H](O)[C@@H](O)[C@@H]1O (some centres unmarked) [WX004]	–	–	–
28.5	5.05	116	CS[C@H]1O[C@@H](c2cccc(Cc3ccc(OC4CCN([C@H]5CO[C@H](c6cc(F)ccc6F)[C@@H](N)C5)C4)cc3)c2)[C@H](O)[C@@H](O)[C@@H]1O (some centres unmarked) [WX005]	–	–	–
2070	19.7	32.5	COc1cc(F)c(Cc2ccc(O[C@@H]3CCN([C@H]4CO[C@H](c5cc(F)ccc5F)[C@@H](N)C4)C3)cc2)cc1[C@@H]1O[C@H](SC)[C@@H](O)[C@H](O)[C@H]1O [WX007]	–	–	–
521	7.39	–	CS[C@H]1O[C@@H](c2cc(Cc3ccc(O[C@@H]4CCN([C@H]5CO[C@H](c6cc(F)ccc6F)[C@@H](N)C5)C4)cc3)c(F)cc2C)[C@H](O)[C@@H](O)[C@@H]1O [WX008]	–	–	–

Second part, the molecule before the results:

Compound	IC50 (Human-SGLT1) [nM]	IC50 (Human-SGLT2) [nM]	IC50 [1] [nM]	OGTT blood glucose levels AUC0-2hr (SD Rat; glucose 2 g/kg) [mmol/L/min]	Urinary glucose level (SD Rat; urine 0 to 24 hours)	Urine volume (SD Rat; urine 0 to 24 hours)
Cc1ccc([C@@H]2O[C@H](CO)[C@@H](O)[C@H](O)[C@H]2O)cc1Cc1ccc(-c2ccc(F)cc2)s1 [Canagliflozin, reference compound]	–	–	–	945	1317**** mg/200 gBW	24.4*** mL/200 gBW
CS[C@H]1O[C@@H](c2cc(Cc3ccc(O[C@@H]4CCN([C@H]5CO[C@H](c6cc(F)ccc6F)[C@@H](N)C5)C4)cc3)c(Cl)cc2C)[C@H](O)[C@@H](O)[C@@H]1O [WX002]	187	4.84	104	–	–	–
CS[C@H]1O[C@@H](c2ccc(Cl)c(Cc3ccc(O[C@@H]4CCN([C@H]5CO[C@H](c6cc(F)ccc6F)[C@@H](N)C5)C4)cc3)c2C)[C@H](O)[C@@H](O)[C@@H]1O [WX003]	980	332	112	–	–	–
